Measured values: patent US6458577B1, “Methods of culturing and assaying a virus in a specimen and compositions and cell lines for doing the same” (priority 1997, dated 2002)
“And” between values parts separate entries of the source, which are not always exact repeats. Identical values can stand only once. Marks after values point to notes of the source that are not given here.

Assays:
HSV-1 in mink lung cells = assay: HSV-1 shell vial culture in NaB-treated mink lung cells, foci of cytopathic effect under light microscope; assay type: cell-based; settings: for cpe = foci of cytopathic effect: mink lung cells, average of two shell vials
Description: (§1) Mink lung cells available from American Type Culture Collection ATTC No. CCL64 are provided. The cells are received in frozen vials from ATCC and are prepared by first thawing in a 37° C. water bath. The thawed cells are removed from the bath and cultured in a tissue culture flask with Opti MEM culture medium supplemented with 5% fetal calf serum and non-essential amino acids, available from Life Technologies, Inc., of Gaithersburg, Md., and the antibiotics penicillin (100 units/ml), streptomycin (100 μg/ml) and the fungizone amphotericin (0.25 μg/ml). The cultured cells reach a complete monolayer in about 3 to 4 days. The mink lung cells are propagated by trypsinization and approximately 2.5×10^5 dispersed cells per shell vial are seeded in shell vials with cover slips. The shell vials are incubated at 37° C. for 24 hours or until the cells form a monolayer.
Mink lung cells were prepared as described in Example 1. Cells were then infected with HSV-1 (originally from clinical specimens but passaged once in tissue culture so virus content is assured). The HSV-1 culture fluid was diluted 1:1000 before use for inoculation. In each shell vial, 0.2 ml of inoculum was used. After centrifuging for 45 minutes at 700×g at 23° C., 0.5 ml of Opti-MEM with 2% fetal calf serum was added to each vial and incubated overnight at 37° C. The following day, the cytopathic effect of the inoculated culture was observed under light microscope. The results are reported in Table 2 and are from the average of two shell vials.

CMV in MRC-5 cells = assay: CMV shell vial culture in NaB-treated MRC-5 cells, immunofluorescent staining, count of stained nuclei; assay type: cell-based, human; settings: for counts of positive stained nuclei from 2 shell vials: 80 mM sodium butyrate 24 hours before infection, MRC-5, cell age 2 days; for MRC-5 cells # of stained nuclei: 2 mM CaCl2, 1% DMSO, 10^-5M dexamethasone after infection
Description: (§2) The cells were then treated with a 5 mM sodium butyrate (NaB) tissue culture solution, prepared by dissolving the appropriate amount of NaB in tissue culture media and filtering the solution, and incubated for 16 to 24 hours. After incubation the NaB and tissue culture media is removed and the treated cells are inoculated with 0.2 ml of CMV inoculum originally from a clinical specimen obtained from urine and prepared by putting the specimen into a viral transport medium containing Hank's buffer, 1% bovine albumin and the antibiotics penicillin (200 units/ml) and streptomycin (200 μg/ml) and the fungizone amphotericin (0.5 μg/ml). After inoculation the shell vials are centrifuged at 700×g for 45 minutes at 23° C. After centrifugation, 0.5 ml of fresh media is added to each vial and the vials are incubated at 37° C. for 16 to 24 hours. After incubation the media is removed and the cell layers are rinsed with phosphate buffered saline (PBS), fixed with cold acetone for 10 minutes, and rinsed again with PBS.
(§3) After fixing, the cells are stained by adding 100 μl of CMV monoclonal antibody (mAb), incubated at 37° C. for 45 minutes and then rinsed with PBS. The CMV mAb used is E-13 monoclonal antibody against immediate early (IE) antigen of CMV. This antibody is used as a primary antibody in the first step of staining and is available from Accurated Chemical and Scientific Co., Westbury, N.Y. After the first staining step 100 μl of biotin which is conjugated with antimouse IgG is added followed by additional incubation at 37° C. for 45 minutes. The biotin complex is available from Boerhinger Mannheim Co., Indianapolis, Ind. The cells are rinsed again with PBS after incubation and then incubated with 100 μl of streptavidin conjugated with fluorescein isothiocyanate (FITC) for 45 minutes at 37° C. The streptavidin complex is also available from Boerhinger Mannheim Co., Indianapolis, Ind. After a final rinse with PBS, a coverslip removed from the shell vial is mounted on the slide which is then examined under a fluorescence equipped microscope manufactured in Germany by Carl Zeiss, Inc., and available from W. Nuhsbaum, McHenry, II. The specific apple-green stained nuclei were counted. The results are reported in Table 1 as positive stained nuclei as an average of four shell vials.
Conventionally, human embryonic lung (HEL) fibroblast cells, such as the MRC-5 cell line which is available from Diagnostic Hybrids, Inc., Athens, Ohio, are used worldwide for CMV culture and viral isolation.
These examples were prepared using the same procedure as Example 1, except that the concentration of NaB used was varied and both mink lung cells and MRC-5 cells were used. Also, the MRC-5 were treated with NaB before infection and 2 mM CaCl2, 1% DMSO and 10^−5M dexamethasone after infection. Table 3 indicates the concentration of NaB used and the results obtained.
These examples used the same procedure as Example 1 for CMV growth except that the age of the cells were varied, the cells were treated with 80 mM sodium butyrate 24 hours before infection, and the MCR-5 cells were treated 2 mM calcium chloride (CaCl2), 1% dimethyl sulfoxide (DMSO)and 10^−5M dexamethasone after infection.
These examples used the same procedure as Example 1 for CMV growth except that the age of the cells were varied, the cells were treated with 80 mM sodium butyrate 24 hours before infection, and the MRC-5 cells were treated 2 mM calcium chloride (CaCl2), 1% dimethyl sulfoxide (DMSO), and 10^−5M dexamethasone after infection. The cell age is measured as the time after seeding of the cells in the shell vial.

[1] = system: CMV in mink lung cells (ATCC No. CCL64); assay: CMV shell vial culture in NaB-treated mink lung cells, immunofluorescent staining of IE antigen, count of stained nuclei; assay type: cell-based; settings: for # of Foci (average # of stained nuclei counted from three shell vials): 80 mM sodium butyrate, mink lung
[2] = system: CMV in mink lung cells (ATCC No. CCL64); assay: as above; assay type: cell-based; settings: for Treated: average # of nuclei staining from three shell vials: 80 mM sodium butyrate 24 hours before CMV infection; for Treated: average # of nuclei staining from three shell vials / counts of positive stained nuclei from 2 shell vials / # of Foci (average # of stained nuclei counted from three shell vials): mink lung; for counts of positive stained nuclei from 2 shell vials: 80 mM sodium butyrate 24 hours before infection; for # of Foci (average # of stained nuclei counted from three shell vials): 80 mM sodium butyrate; for # positive stained nuclei: average of four shell vials
Description: as §1, §2
as §3, with “vials. […]” for “vials.”
These examples were prepared using the same procedure as Example 1, except that the concentration of NaB used was varied and both mink lung cells and MRC-5 cells were used. Also, the MRC-5 were treated with NaB before infection and 2 mM CaCl2, 1% DMSO and 10^−5M dexamethasone after infection. Table 3 indicates the concentration of NaB used and the results obtained. […]
These examples used the same procedure as Example 1 for CMV growth except that the time of treatment with sodium butyrate was varied, i.e., the cells were treated with 80 mM sodium butyrate for different times before infection, and the MRC-5 cells were treated with 2 mM calcium chloride (CaCl2), 1% dimethyl sulfoxide (DMSO) and 10^−5M dexamethasone after infection.

SMILES: CCCC(=O)[O-].[Na+] [NaB, sodium butyrate]
- cpe = foci of cytopathic effect (HSV-1 in mink lung cells; NaB 2.5 mM, 16 to 24 hours before HSV-1 infection (1:1000)): 18
- cpe = foci of cytopathic effect (HSV-1 in mink lung cells; NaB 5.0 mM before HSV-1 infection): 20
- cpe = foci of cytopathic effect (HSV-1 in mink lung cells; NaB 10.0 mM before HSV-1 infection): 22
- cpe = foci of cytopathic effect (HSV-1 in mink lung cells; NaB 20 mM before HSV-1 infection): 12
- sensitivity for HSV isolation and detection versus RK cells (in words) (HSV-1 in mink lung cells; NaB treated mink lung cells, Table 2): comparable sensitivity
- Treated: average # of nuclei staining from three shell vials (CMV in MRC-5 cells; 80 mM sodium butyrate 24 hours before CMV infection, MRC-5, cell age 4 days, CaCl2, DMSO, dexamethasone after infection): 4
- counts of positive stained nuclei from 2 shell vials (CMV in MRC-5 cells; CaCl2, DMSO, dexamethasone after infection, inoculum 10^-0 (no dilution)): 39/29
- counts of positive stained nuclei from 2 shell vials (CMV in MRC-5 cells; CaCl2, DMSO, dexamethasone after infection, inoculum 10^-1 (1:10 dilution)): 3/1
- counts of positive stained nuclei from 2 shell vials (CMV in MRC-5 cells; CaCl2, DMSO, dexamethasone after infection, inoculum 10^-2 (1:100 dilution)): 0/0
- MRC-5 cells # of stained nuclei (CMV in MRC-5 cells; NaB 10 mM before CMV infection): 2 and 3
- MRC-5 cells # of stained nuclei (CMV in MRC-5 cells; NaB 20 mM before CMV infection): 2
- MRC-5 cells # of stained nuclei (CMV in MRC-5 cells; NaB 80 mM before CMV infection): 7 and 6
- # of Foci (average # of stained nuclei counted from three shell vials) ([1]; time of treatment 2 hours before CMV infection): 126
- # of Foci (average # of stained nuclei counted from three shell vials) ([1]; time of treatment 8 hours before CMV infection): 306
- enhancement of CMV expression ([1]; 2 hour treatment of mink lung cells with NaB (80 mM)): more than a two fold enhancement
- time of treatment required for optimum enhancement of CMV expression ([1]; mink lung cells, 80 mM NaB): at least 8 hours
- effect on susceptibility of mink lung cells to CMV infection at different cell age (in words) ([2]; 80 mM NaB, cell age 2 to 7 days, Table 5): enhanced the susceptibility
- Treated: average # of nuclei staining from three shell vials ([2]; cell age 2 days): 123*
- Treated: average # of nuclei staining from three shell vials ([2]; cell age 3 days): 121
- Treated: average # of nuclei staining from three shell vials ([2]; cell age 5 days): 78
- Treated: average # of nuclei staining from three shell vials ([2]; cell age 7 days): 30
- counts of positive stained nuclei from 2 shell vials ([2]; cell age 2 days, inoculum 10^-0 (no dilution)): 232/220
- counts of positive stained nuclei from 2 shell vials ([2]; cell age 2 days, inoculum 10^-1 (1:10 dilution)): 44/52
- counts of positive stained nuclei from 2 shell vials ([2]; cell age 2 days, inoculum 10^-2 (1:100 dilution)): 5/2
- counts of positive stained nuclei from 2 shell vials ([2]; cell age 3 days, inoculum 10^-0 (no dilution)): 242/309
- counts of positive stained nuclei from 2 shell vials ([2]; cell age 3 days, inoculum 10^-1 (1:10 dilution)): 47/43
- counts of positive stained nuclei from 2 shell vials ([2]; cell age 3 days, inoculum 10^-2 (1:100 dilution)): 1/2
- # of Foci (average # of stained nuclei counted from three shell vials) ([2]; time of treatment 4 hours before CMV infection): 234
- # of Foci (average # of stained nuclei counted from three shell vials) ([2]; time of treatment 6 hours before CMV infection): 276
- # of Foci (average # of stained nuclei counted from three shell vials) ([2]; time of treatment 18 hours before CMV infection): 360*
- response of mink lung cells to NaB treatment versus NaB treated MRC-5 cells (in words) ([2]; CMV infection, Table 3): better response
- # positive stained nuclei ([2]; NaB 5 mM, 16 to 24 hours before CMV inoculation, mink lung cells): 22
- Mink lung cells # of stained nuclei ([2]; NaB 10 mM before CMV infection): 7 and 9
- # positive stained nuclei ([2]; NaB 10 mM before CMV inoculation, mink lung cells): 30
- Mink lung cells # of stained nuclei ([2]; NaB 20 mM before CMV infection): 12
- # positive stained nuclei ([2]; NaB 20 mM before CMV inoculation, mink lung cells): 38
- Mink lung cells # of stained nuclei ([2]; NaB 40 mM before CMV infection): 12 and 23
- # positive stained nuclei ([2]; NaB 40 mM before CMV inoculation, mink lung cells): 71
- Mink lung cells # of stained nuclei ([2]; NaB 80 mM before CMV infection): 26 and 32
- # positive stained nuclei ([2]; NaB 80 mM before CMV inoculation, mink lung cells): 85
- increase in number of stained cells as compared with untreated mink lung cells ([2]; NaB 80 mM, CMV, mink lung cells): about 10 fold
- sensitivity for CMV isolation and detection versus MRC-5 cells (in words) ([2]; NaB treated mink lung cells, Table 1): far superior sensitivity
- optimum concentration for growth of CMV in mink lung cells ([2]; Table 1): about 80 mM
- virus detection at high dilution of inoculum (in words) ([2]; mink lung cells treated with NaB 80 mM, Table 4): the virus is still detected
